US8952024B2, “Herbicidal pyrimidone derivatives” (E I du Pont de Nemours and Company, priority 2009, dated 2015)

Assays:
Type in all cases: in vivo
[1] = test system: chickweed (Stellaria media); experiment: Test B postemergence plant response; settings: for Plant response rating, Chickweed: Postemergence
How it was run: (§1)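 Visual ratings from 0 (no effect) to 100 (complete control), made against controls 13–15 days after treatment, kept in a greenhouse. Compounds were applied postemergence to potted plants at the 1- to 4-leaf stage (2–18 cm).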

[2] = test system: canarygrass (Phalaris minor); experiment: Test B postemergence plant response; settings: for Plant response rating, Canarygrass: Postemergence
How it was run: as §1

[3] = test system: windgrass (Apera spica-venti); experiment: Test B postemergence plant response; settings: for Plant response rating, Windgrass: Postemergence
How it was run: as §1

[4] = test system: wheat (Triticum aestivum); experiment: Test B pre-/postemergence plant response; settings: for Plant response rating, Wheat: Postemergence
Excerpt: (§2) Seeds of plant species selected from blackgrass (Alopecurus myosuroides), downy bromegrass (Bromus tectorum), green foxtail (Setaria viridis), Italian ryegrass (Lolium multiflorum), wheat (Triticum aestivum), wild oat (Avena fatua), deadnettle (henbit deadnettle, Lamium amplexicaule), galium (catchweed bedstraw, Galium aparine), bermudagrass (Cynodon dactylon), Surinam grass (Brachiaria decumbens), cocklebur (Xanthium strumarium), corn (Zea mays), large crabgrass (Digitaria sanguinalis), woolly cupgrass (Eriochloa villosa), giant foxtail (Setaria faberii), goosegrass (Eleusine indica), johnsongrass (Sorghum halepense), kochia (Kochia scoparia), lambsquarters (Chenopodium album), morningglory (Ipomoea coccinea), nightshade (eastern black nightshade, Solanum ptycanthum), yellow nutsedge (Cyperus esculentus), pigweed (Amaranthus retroflexus), ragweed (common ragweed, Ambrosia elatior), Russian thistle (Salsola kali), soybean (Glycine max), sunflower (common oilseed sunflower, Helianthus annuus) and velvetleaf (Abutilon theophrasti) were planted into a blend of loam soil and sand and treated preemergence with test compounds formulated in a non-phytotoxic solvent mixture which included a surfactant.
(§3) At the same time, plants selected from these crop and weed species and also winter barley (Hordeum vulgare), canarygrass (Phalaris minor), chickweed (Stellaria media) and windgrass (Apera spica-venti) were planted in pots containing Redi-Earth® planting medium (Scotts Company, 14111 Scottslawn Road, Marysville, Ohio 43041) comprising spaghnum peat moss, vermiculite, wetting agent and starter nutrients and treated with postemergence applications of some of the test chemicals formulated in the same manner. Plants ranged in height from 2 to 18 cm (1- to 4-leaf stage) for postemergence treatments.
(§4) Treated plants and controls were maintained in a greenhouse for 13 to 15 days, after which time all treated plants were visually evaluated and compared to controls. Plant response ratings, summarized in Table B, are based on a scale of 0 to 100 where 0 is no effect and 100 is complete control. A dash (-) response means no test result.

[5] = test system: cocklebur (Xanthium strumarium); experiment: Test B pre-/postemergence plant response
Excerpt: as §2, §3, §4

[6] = test system: wild oat (Avena fatua); experiment: Test B pre-/postemergence plant response; settings: for Plant response rating, Oat, Wild: Postemergence
Excerpt: as §2, §3, §4

[7] = test system: soybean (Glycine max); experiment: Test B pre-/postemergence plant response; settings: for Plant response rating, Soybean: Postemergence
Excerpt: as §2, §3, §4

[8] = test system: Surinam grass (Brachiaria decumbens); experiment: Test B pre-/postemergence plant response; settings: for Plant response rating, Surinam Grass: Postemergence
Excerpt: as §2, §3, §4

[9] = test system: velvetleaf (Abutilon theophrasti); experiment: Test B pre-/postemergence plant response; settings: for Plant response rating, Velvetleaf: Postemergence
Excerpt: as §2, §3, §4

[10] = test system: lambsquarters (Chenopodium album); experiment: Test B pre-/postemergence plant response; settings: for Plant response rating, Lambsquarters: Postemergence
Excerpt: as §2, §3, §4

[11] = test system: pigweed (Amaranthus retroflexus); experiment: Test B pre-/postemergence plant response; settings: for Plant response rating, Pigweed: Postemergence
Excerpt: as §2, §3, §4

[12] = test system: blackgrass (Alopecurus myosuroides); experiment: Test B pre-/postemergence plant response; settings: for Plant response rating, Blackgrass: Postemergence
Excerpt: as §2, §3, §4

[13] = test system: kochia (Kochia scoparia); experiment: Test B pre-/postemergence plant response; settings: for Plant response rating, Kochia: Postemergence
Excerpt: as §2, §3, §4

[14] = 62 g ai/ha, postemergence, 0 is no effect, 100 is complete control, 13 to 15 days
[15] = 31 g ai/ha, 0 to 100 scale (0 no effect, 100 complete control)
[16] = 125 g ai/ha, scale 0 to 100 (0 no effect, 100 complete control)
[17] = 250 g ai/ha, scale 0 to 100 (0 no effect, 100 complete control), 13 to 15 days
[18] = 62 g ai/ha, scale 0 to 100 (0 no effect, 100 complete control)

For `CCCCn1c(-c2cccc(Cl)c2)ncc(C(=O)C2=C(O)CCCC2=O)c1=O` [Compound 146], the “Chickweed plant response rating (0 to 100 scale)” value [1, 14] was 95, the “Plant response rating, Chickweed” value [1, 15] was 70 and the “Plant response rating, Chickweed” value [1, 16] was 98. For the same molecule, the “Plant response rating, Chickweed” value [1, 17] was 98, the “Canarygrass plant response rating (0 to 100 scale)” value [2, 14] was 0 and the “Plant response rating, Canarygrass” value [2, 15] was 0. The “Plant response rating, Canarygrass” value [2, 16] was 5, the “Plant response rating, Canarygrass” value [2, 17] was 10 and the “Windgrass plant response rating (0 to 100 scale)” value [3, 14] was 50. For the same molecule, the “Plant response rating, Windgrass” value [3, 15] was 45, the “Plant response rating, Windgrass” value [3, 16] was 60 and the “Plant response rating, Windgrass” value [3, 17] was 60. For the same molecule, the “Wheat plant response rating (0 to 100 scale)” value [4, 14] was 0, the “Plant response rating, Wheat” value [4, 15] was 0 and the “Plant response rating, Wheat” value [4, 16] was 15. The “Plant response rating, Wheat” value [4, 17] was 45, the “Cocklebur plant response rating (0 to 100 scale)” value [5, 14] was 25 and the “Plant response rating, Cocklebur” value ([5]; Postemergence, 31 g ai/ha, 0 to 100 scale (0 no effect, 100 complete control)) was 10. The “Oat, Wild plant response rating (0 to 100 scale)” value [6, 14] was 20, the “Plant response rating, Oat, Wild” value [6, 15] was 0 and the “Plant response rating, Oat, Wild” value [6, 16] was 50. For the same molecule, the “Plant response rating, Oat, Wild” value [6, 17] was 70, the “Soybean plant response rating (0 to 100 scale)” value [7, 14] was 85 and the “Plant response rating, Soybean” value [7, 15] was 70. The “Plant response rating, Soybean” value [7, 16] was 98, the “Plant response rating, Soybean” value [7, 17] was 100 and the “Surinam Grass plant response rating (0 to 100 scale)” value [8, 14] was 65. The “Plant response rating, Surinam Grass” value [8, 15] was 65, the “Plant response rating, Surinam Grass” value [8, 16] was 75 and the “Plant response rating, Surinam Grass” value [8, 17] was 75. For the same molecule, the “Velvetleaf plant response rating (0 to 100 scale)” value [9, 14] was 85, the “Plant response rating, Velvetleaf” value [9, 15] was 80 and the “Plant response rating, Velvetleaf” value [9, 16] was 98. The “Plant response rating, Velvetleaf” value [9, 17] was 100, the “Lambsquarters plant response rating (0 to 100 scale)” value [10, 14] was 98 and the “Plant response rating, Lambsquarters” value [10, 15] was 95. For the same molecule, the “Plant response rating, Lambsquarters” value [10, 16] was 100, the “Plant response rating, Lambsquarters” value [10, 17] was 100 and the “Pigweed plant response rating (0 to 100 scale)” value [11, 14] was 98. The “Plant response rating, Pigweed” value [11, 15] was 95, the “Plant response rating, Pigweed” value [11, 16] was 100 and the “Plant response rating, Pigweed” value [11, 17] was 100. The “Blackgrass plant response rating (0 to 100 scale)” value [12, 14] was 30, the “Plant response rating, Blackgrass” value [12, 15] was 5 and the “Plant response rating, Blackgrass” value [12, 16] was 35. For the same molecule, the “Plant response rating, Blackgrass” value [12, 17] was 50, the “Kochia plant response rating (0 to 100 scale)” value [13, 14] was 45 and the “Plant response rating, Kochia” value [13, 15] was 40. For the same molecule, the “Plant response rating, Kochia” value [13, 16] was 85 and the “Plant response rating, Kochia” value [13, 17] was 90.
`COCCn1c(-c2cccc(F)c2)ncc(C(=O)C2=C(O)C3CCC(C3)C2=O)c1=O` (stereo not drawn) [Compound 235] was tested, and the “Plant response rating, Chickweed” value [1, 15] was 98, the “Plant response rating, Chickweed” value [1, 18] was 100 and the “Plant response rating, Chickweed” value [1, 16] was 100. For the same molecule, the “Plant response rating, Chickweed” value [1, 17] was 100, the “Plant response rating, Canarygrass” value [2, 15] was 20 and the “Plant response rating, Canarygrass” value [2, 18] was 30. For the same molecule, the “Plant response rating, Canarygrass” value [2, 16] was 30, the “Plant response rating, Canarygrass” value [2, 17] was 30 and the “Plant response rating, Windgrass” value [3, 15] was 85. For the same molecule, the “Plant response rating, Windgrass” value [3, 18] was 95, the “Plant response rating, Windgrass” value [3, 17] was 98 and the “Plant response rating, Wheat” value [4, 15] was 45. The “Plant response rating, Wheat” value [4, 18] was 80, the “Plant response rating, Wheat” value [4, 17] was 80 and the “Plant response rating, Oat, Wild” value [6, 15] was 35. The “Plant response rating, Oat, Wild” value [6, 18] was 50, the “Plant response rating, Oat, Wild” value [6, 17] was 95 and the “Plant response rating, Soybean” value [7, 15] was 98. For the same molecule, the “Plant response rating, Soybean” value [7, 18] was 100, the “Plant response rating, Soybean” value [7, 17] was 100 and the “Plant response rating, Surinam Grass” value [8, 15] was 80. For the same molecule, the “Plant response rating, Surinam Grass” value [8, 18] was 90, the “Plant response rating, Surinam Grass” value [8, 17] was 100 and the “Plant response rating, Velvetleaf” value [9, 15] was 95. The “Plant response rating, Velvetleaf” value [9, 18] was 100, the “Plant response rating, Velvetleaf” value [9, 17] was 100 and the “Plant response rating, Lambsquarters” value [10, 15] was 98. For the same molecule, the “Plant response rating, Lambsquarters” value [10, 18] was 100, the “Plant response rating, Lambsquarters” value [10, 16] was 100 and the “Plant response rating, Lambsquarters” value [10, 17] was 100. For the same molecule, the “Plant response rating, Pigweed” value [11, 15] was 100, the “Plant response rating, Pigweed” value [11, 18] was 100 and the “Plant response rating, Pigweed” value [11, 17] was 100. The “Plant response rating, Blackgrass” value [12, 15] was 45, the “Plant response rating, Blackgrass” value [12, 18] was 60 and the “Plant response rating, Blackgrass” value [12, 16] was 70. For the same molecule, the “Plant response rating, Kochia” value [13, 15] was 98, the “Plant response rating, Kochia” value [13, 18] was 100 and the “Plant response rating, Kochia” value [13, 16] was 100. The “Plant response rating, Kochia” value [13, 17] was 100.
